Data: US20120316203A1, “Compositions and Methods for Inhibition of Cancers” (THE OHIO STATE UNIVERSITY RESEARCH FOUNDATION, priority 2009, published 2012)

Key:
[1] = test system: HER1, SREBP1, ERK1/2, MMP-2 and VEGF in A2780 and SKOV3 cells; assay: Blotting of FAS/FAK-regulating proteins; format: cell-based, human; details: 10 μM, 24 h
Description: Cells in RPMI 1640 medium were treated with DMSO (control) or HO-3867 (10 μM) for 24 h. Equal volumes of DMSO (0.1% v/v) were present in each treatment. Following treatment, the cell lysates were prepared in nondenaturing lysis buffer containing 10-mM Tris-HCl (pH 7.4), 150-mM NaCl, 1% Triton X-100, 1-mM EDTA, 1-mM EGTA, 0.3-mM phenylmethylsulfonyl fluoride, 0.2-mM sodium orthovanadate, 0.5% NP40, 1-μg/ml aprotinin, and 1-μg/ml leupetin. The lysates were centrifuged at 10,000×g for 20 min at 4° C., and the supernatant was separated. The protein concentration in the lysates was determined using a Pierce detergent-compatible protein assay kit. For Western blotting, 25 to 50 μg of protein lysate per sample was denatured in 2×SDS-PAGE sample buffer and subjected to SDS-PAGE on a 10% tris-glycine gel. The separated proteins were transferred to a PVDF membrane and blocked with 5% nonfat milk powder (w/v) in TBST (10-mM Tris, 10-mM NaCl, 0.1% Tween 20) for 1 h at room temperature or overnight at 4° C. The membranes were then incubated with the primary antibodies. The bound antibodies were detected with horseradish peroxidase (HRP)-labeled sheep anti-mouse IgG or HRP-labeled donkey anti-rabbit IgG using an enhanced chemiluminescence detection system (ECL Advanced kit). Protein expressions were determined using Image Gauge version 3.45.

[2] = test system: A2780R, PA-1, SKOV3, OV4, and OVCAR3 human ovarian cancer cell lines; assay: Cell viability by MTT assay, other ovarian cancer cell lines; format: cell-based; details: 10 μmol/L; 24 h
Description: Cell viability was determined by a colorimetric assay using MTT. In the mitochondria of living cells, yellow MTT undergoes a reductive conversion to formazan, producing a purple color. Cells, grown to […] confluence in 75-mm flasks, were trypsinized, counted, seeded in 96-well plates with an average population of 7,000 cells per well, incubated overnight, and then treated with curcumin, H-4073, or HO-3867 for 24 hours. All experiments were done using eight replicates and, repeated at least thrice.

[3] = test system: A2780 xenograft tumor tissues; assay: FAS/FAK and VEGF levels in xenograft tumor tissues (immunoblot, immunohistochemistry); format: in vivo, BALB/c nude mice
Description: A2780 cells (5×10^6 cells in 60 μl of PBS) were subcutaneously (s.c.) injected into the back of 6-week-old BALB/c nude mice from the National Cancer Institute. On the 5th day when the tumor size reached approximately 2 to 4 mm, the control groups was supplemented a normal diet (no treatment) while the experimental groups were treated using the DAP compounds mixed with the animal feed ([…]). The doses were chosen based on an initial dose-response study optimized to produce an observable effect on tumor growth. The tumor tissues were then subjected to immunoblotting and immunohistochemistry.
Tumor tissues were fixed in formalin and embedded in paraffin. Sections (6-μm thick) were obtained and used for hematoxylin and eosin staining. For immunofluorescence staining, the tissue sections (8-μm thick) were serially rehydrated in 100%, 95%, and 80% ethanol after deparaffinization with xylene. Slides were kept in steam for 30 min and then washed in PBS (pH 7.4) three times for 5 min each. Tissue sections were incubated with 2% goat serum and 5% bovine serum albumin in PBS to reduce nonspecific binding. The sections were then incubated for 4 h with an anti-mouse anti-FAS, or anti-VEGF. The sections were then incubated with secondary antibodies (1:1000 dilutions) conjugated to horseradish peroxidase (HRP)-labeled sheep anti-mouse IgG or HRP-labeled donkey anti-rabbit IgG (Amersham Pharmacia Biotech). The tissue slides were visualized using a Nikon fluorescence microscope.

[4] = test system: A2780R, SKOV3, OV4, and OVCAR3 cells; assay: Western blot of apoptosis and JAK/STAT3 in four additional ovarian cancer cell lines; format: cell-based, human; details: 10 μmol/L, 24 hours, all four cell lines
Description: Cells in RPMI 1640 were treated with DMSO (control) or HO-3867 (10 μmol/L) for 24 hours. Equal volumes of DMSO (0.1% v/v) were present in each treatment. Following treatment, the cell lysates were prepared in non-denaturing lysis buffer containing 10 mmol/L Tris-HCl (pH 7.4), 150 mmol/L NaCl, 1% Triton X-100, 1 mmol/L EDTA, 1 mmol/L EGTA, 0.3 mmol/L phenylmethyl-sulfonyl fluoride, 0.2 mmol/L sodium orthovanadate, 0.5% NP40, 1 μg/mL aprotinin, and 1 μg/mL leupetin. The lysates were centrifuged at 10,000×g for 20 minutes at 4° C. and the supernatant was separated. The protein concentration in the lysates was determined using a Pierce detergent-compatible protein assay kit. For Western blotting, 25 to 50 μg of protein lysate per sample were denatured in 2×SDS-PAGE sample buffer and subjected to SDS-PAGE on a 10% tris-glycine gel. The separated proteins were transferred to a polyvinylidene fluoride membrane and were blocked with 5% nonfat milk powder (w/v) in TBST (10 mmol/L Tris, 10 mmol/L NaCl, 0.1% Tween 20) for 1 hour at room temperature or overnight at 4° C. […] The bound antibodies were detected with horseradish peroxidase-labeled sheep anti-mouse IgG or horseradish peroxidase-labeled donkey anti-rabbit IgG using an enhanced chemiluminescence detection system (ECL Advanced kit). Protein expressions were determined using the Image Gauge v. […]

[5] = test system: STAT3 and apoptotic markers in HSMC; assay: Western blot of STAT3 signaling and apoptotic markers in HSMC; format: cell-based, human; details: 10 μM, 24 h
Description: Cells were grown in RPMI 1640 medium and treated with DMSO (control) or HO-3867 ([…]). Equal volumes of DMSO (0.1% v/v) were present in both groups. After treatment, cell lysates were prepared in nondenaturing lysis buffer (10 mM Tris-HCl (pH 7.4), 150 mM NaCl, 1% Triton X-100, 1 mM EDTA, 1 mM EGTA, 0.3 mM phenylmethylsulfonyl fluoride, 0.2-mM sodium orthovanadate, 0.5% NP-40, 1 lag/ml aprotinin, and 1 lag/ml leupeptin). Cell lysates were centrifuged at 10,000 RPM for 20 min at 4° C., and the supernatant was separated. The protein concentration in the lysates was determined using a Pierce detergent-compatible protein assay kit. For Western blotting, 25 to 50 lag of protein lysate per sample was denatured in 2× sample buffer and subjected to SDS-PAGE on a 10 or 12% Tris-glycine gel. The separated proteins were transferred to a PVDF membrane and then the membrane was blocked with 5% nonfat milk powder (w/v) in 10 mM Tris, 100 mM NaCl, 0.1% Tween 20 for 1 h at room temperature or overnight at 4° C. The membranes were incubated with the primary antibodies described above. The bound antibodies were detected with horseradish peroxidase (HRP)-labeled sheep anti-mouse IgG or HRP-labeled donkey anti-rabbit IgG (Amersham) using an enhanced chemiluminescence detection system (ECL Advanced Kit). Protein expression was determined using Image Gauge version 3.45.

[6] = 50 or 100 ppm in feed, dose-dependent

For `CC1(C)C=C(CN2C/C(=C\c3ccc(F)cc3)C(=O)/C(=C/c3ccc(F)cc3)C2)C(C)(C)N1O` [HO-3867, 1-[(1-oxyl-2,2,5,5-tetramethyl-2,5-dihydro-1H-pyrrol-3-yl)methyl]-(3E,5E)-3,5-bis(4-fluorobenzylidene)piperidin-4-one], which “pHER2, pERK1/2, SREBP1, MMP-2, and VEGF” value [1] is on record?
The value was “inhibited”.

And the “cytotoxicity in other human ovarian cancer cell lines” value [2]?
The value was “equally and significantly toxic”.

What about the “SREBP1, MMP-2, and VEGF in xenografted tumor tissues” value [3, 6] of the same molecule?
The value was “clear down-regulation”.

And the “expression of FAS and FAK in xenografted tumor tissues” value [3, 6]?
Its value is “decreased expression”.

And the “protein levels of FAS and VEGF by immunocytochemistry in tumor-bearing mice” value ([3]; mouse, in vivo)?
Its value is “significantly inhibited”.

What about the “caspase-3 and PARP cleavage” value [4] of the same molecule?
The value was “clearly showed caspase-3 and PARP cleavage”.

And the “expression levels of pSTAT3 and JAK1” value [4]?
Its value is “decrease”.

What about the “activation of STAT3 or apoptotic markers in HSMC” value [5] of the same molecule?
The value was “did not induce any significant change”.
